The values below come from patent publication US6441195B1, “Substituted sulphonylamino(thio) carbonyl compounds” (Bayer Aktiengesellschaft, priority 1995, dated 2002).

Common to all, as to assay type: in vivo
The subject of data set [1] is weeds. Description: Pre-emergence test (greenhouse), activity against weeds. Particulars: in words. The method in brief: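 Three weeks after treatment, % damage relative to untreated plants is scored, 0% meaning no effect. Seeds in normal soil received, roughly one day post-sowing, an aqueous dilution of an acetone/emulsifier concentrate, with the rate per unit area, not concentration, being the relevant dose.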

Data set [2] has as its system weeds. Nature of the data set: Post-emergence test (greenhouse), activity against weeds. Particulars: in words. As to the method: (§1) Solvent: 5 parts by weight of acetone
(§2) Emulsifier: 1 part by weight of alkylaryl polyglycol ether
(§3) To produce a suitable preparation of active compound, 1 part by weight of active compound is mixed with the stated amount of solvent, the stated amount of emulsifier is added and the concentrate is diluted with water to the desired concentration.
(§4) Test plants which have a height of 5-15 cm are sprayed with the preparation of the active compound in such a way as to apply the particular amounts of active compound desired per unit area. The concentration of the spray liquor is chosen so that the particular amounts of active compound desired are applied in 2000 l of water/ha.
(§5) After three weeks, the degree of damage to the plants is rated in % damage in comparison to the development of the untreated control.
(§6) 0%=no action (like untreated control)

Data set [3] has as its system Maize. Nature of the data set: Post-emergence test/greenhouse, Maize. Particulars: greenhouse, after three weeks. As to the method:
as §1, §2, §3, §4, §5, §6

In another data set the test system is Digitaria. Nature of the data set: Post-emergence test/greenhouse, Digitaria. Particulars: greenhouse, after three weeks. As to the method: as §1, §2, §3, §4, §5, §6
The next data set concerns Echinochloa. Description: Post-emergence test/greenhouse, Echinochloa. Particulars: greenhouse, after three weeks. As to the method: as §1, §2, §3, §4, §5, §6
Data set [4] concerns Lolium. Description: Post-emergence test/greenhouse, Lolium. Particulars: greenhouse, after three weeks. Here is the method:
as §1, §2, §3, §4, §5, §6

Data set [5] deals with Sorghum. Nature of the data set: Post-emergence test/greenhouse, Sorghum. Particulars: greenhouse, after three weeks. As to the method:
as §1, §2, §3, §4, §5, §6

A further data set has as its system Amaranthus. Nature of the data set: Post-emergence test/greenhouse, Amaranthus. Particulars: greenhouse, after three weeks. As to the method:
as §1, §2, §3, §4, §5, §6

For data set [6], the system named is Matricaria. Nature of the data set: Post-emergence test/greenhouse, Matricaria. Particulars: greenhouse, after three weeks. As to the method: as §1, §2, §3, §4, §5, §6
A further data set relates to Stellaria. Nature of the data set: Post-emergence test/greenhouse, Stellaria. Particulars: greenhouse, after three weeks. As to the method:
as §1, §2, §3, §4, §5, §6

Data set [7] deals with Maize. Nature of the data set: Pre-emergence test/Greenhouse, Maize. The method in brief:
(§7)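 First, compound is formulated with solvent and emulsifier and diluted with water. Next, soil sown with seeds is watered with it after about 24 h, at a fixed water amount per area. Finally, damage is rated at three weeks in % against untreated controls.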

In data set [8] the test system is Lolium. Description: Pre-emergence test/Greenhouse, Lolium. Particulars: after three weeks. The gist of the method: as §7
The subject of the next data set is Poa. Description: Pre-emergence test/Greenhouse, Poa. Particulars: 30 g of ai./ha, after three weeks. The gist of the method:
as §7

Data set [9] concerns Sorghum. Nature of the data set: Pre-emergence test/Greenhouse, Sorghum. Particulars: after three weeks. The gist of the method: as §7
The test system of the next data set is Ambrosia. Description: Pre-emergence test/Greenhouse, Ambrosia. Particulars: after three weeks. The method in brief: as §7
Data set [10] concerns Matricaria. Nature of the data set: Pre-emergence test/Greenhouse, Matricaria. Particulars: after three weeks. The gist of the method:
as §7

The subject of another data set is Solanum. Description: Pre-emergence test/Greenhouse, Solanum. Particulars: 30 g of ai./ha, after three weeks. The gist of the method:
as §7

The next data set relates to Soya beans. Description: Pre-emergence test/Greenhouse, Soya beans. Particulars: in vivo. The gist of the method:
as §7

The next data set has as its system Gallium. Nature of the data set: Post-emergence test/greenhouse, Gallium. Particulars: greenhouse, 60 g of ai./ha, after three weeks. As to the method: as §1, §2, §3, §4, §5, §6

Turning to `CCOc1nn(C(=O)NS(=O)(=O)c2c(C)csc2C(=O)OC)c(=O)n1C` [Example 1, 5-ethoxy-4-methyl-2-(4-methyl-2-methoxycarbonyl-thien-3-yl-sulphonylaminocarbonyl)-2,4-dihydro-3H-1,2,4-triazol-3-one], the activity against weeds entry in the data set with weeds [1] and in the data set with weeds [2] was “very strong activity against weeds” in each case. The “degree of damage, Maize” value in the data set with Maize [3] (125 g of ai./ha) is given as 60%. Moreover, in the data set with Digitaria (125 g of ai./ha), the “degree of damage, Digitaria” value is listed as 95%. Moreover, in the data set on Echinochloa (125 g of ai./ha), the “degree of damage, Echinochloa” value is recorded as 95%. The “degree of damage, Lolium” value in the data set on Lolium [4] (125 g of ai./ha) came to 90%. For the same compound, the “degree of damage, Sorghum” value with Sorghum [5] (125 g of ai./ha) was 95%. Moreover, the “degree of damage, Amaranthus” value in the data set on Amaranthus (125 g of ai./ha) is 100%. In addition, the “degree of damage, Matricaria” value in the data set with Matricaria [6] (125 g of ai./ha) was found to be 100%. For the same compound, the “degree of damage, Stellaria” value in the data set with Stellaria (125 g of ai./ha) was found to be 100%. In the data set with Maize [7] (pre-emergence, 30 g of ai./ha, after three weeks), the “degree of damage to the plants (% damage vs untreated control), Maize” value (from here on “degree … (% damage vs untreated control), Maize”) is recorded as 10%. Also, the “degree of damage to the plants (% damage vs untreated control), Lolium” value (“degree … (% damage vs untreated control), Lolium” below) in the data set with Lolium [8] (30 g of ai./ha) stood at 95%. In addition, the “degree of damage to the plants (% damage vs untreated control), Poa” value in the data set on Poa was found to be 95%. In addition, the “degree of damage to the plants (% damage vs untreated control), Sorghum” value with Sorghum [9] (30 g of ai./ha) was 90%. Moreover, in the data set on Ambrosia (30 g of ai./ha), the “degree of damage to the plants (% damage vs untreated control), Ambrosia” value is 95%. For the same compound, the “degree of damage to the plants (% damage vs untreated control), Matricaria” value in the data set with Matricaria [10] (30 g of ai./ha) amounted to 95%. For the same compound, the “degree of damage to the plants (% damage vs untreated control), Solanum” value in the data set on Solanum came out at 95%.
As to `CCc1nn(C(=O)NS(=O)(=O)c2c(C)csc2C(=O)OC)c(=O)n1C` [Example 5], the activity against weeds entry in the data set on weeds [1] and with weeds [2] was “very strong activity against weeds” each time. The “degree of damage, Maize” value with Maize [3] (30 g of ai./ha) was 10%. The “degree of damage, Digitaria” value in the data set with Digitaria (30 g of ai./ha) turned out to be 95%. Moreover, the “degree of damage, Echinochloa” value with Echinochloa (30 g of ai./ha) was determined as 80%. Also, in the data set on Lolium [4] (30 g of ai./ha), the “degree of damage, Lolium” value is 70%. The “degree of damage, Sorghum” value with Sorghum [5] (30 g of ai./ha) was determined as 90%. For the same compound, the “degree of damage, Amaranthus” value in the data set with Amaranthus (30 g of ai./ha) is on record as 100%. The “degree of damage, Matricaria” value with Matricaria [6] (30 g of ai./ha) is listed as 95%. Besides, the “degree of damage, Stellaria” value in the data set on Stellaria (30 g of ai./ha) was 90%. The “degree … (% damage vs untreated control), Maize” value in the data set on Maize [7] (in vivo) came out at 0%. In the data set with Soya beans, the “degree of damage to the plants (% damage vs untreated control), Soya beans” value turned out to be 20%. Also, the “degree … (% damage vs untreated control), Lolium” value with Lolium [8] (30 g of ai./ha) is listed as 95%. In addition, in the data set with Poa, the “degree of damage to the plants (% damage vs untreated control), Poa” value is recorded as 95%. Moreover, the “degree of damage to the plants (% damage vs untreated control), Sorghum” value with Sorghum [9] (30 g of ai./ha) was determined as 90%. Also, in the data set with Ambrosia (30 g of ai./ha), the “degree of damage to the plants (% damage vs untreated control), Ambrosia” value worked out at 95%. Also, the “degree of damage to the plants (% damage vs untreated control), Matricaria” value in the data set on Matricaria [10] (30 g of ai./ha) amounted to 95%. Moreover, in the data set with Solanum, the “degree of damage to the plants (% damage vs untreated control), Solanum” value came out at 95%.
Regarding `CCOC(=O)c1cccc(C)c1S(=O)(=O)NC(=O)n1nc(SC)n(C)c1=O` [Example 7], the activity against weeds result with weeds [1] and in the data set with weeds [2] was “very strong activity against weeds” each time. The “degree of damage, Maize” value in the data set on Maize [3] (60 g of ai./ha) was determined as 15%. The “degree of damage, Digitaria” value in the data set with Digitaria (60 g of ai./ha) is given as 95%. For the same compound, the “degree of damage, Echinochloa” value with Echinochloa (60 g of ai./ha) came to 95%. In addition, the “degree of damage, Lolium” value in the data set on Lolium [4] (60 g of ai./ha) came to 95%. Also, in the data set with Sorghum [5] (60 g of ai./ha), the “degree of damage, Sorghum” value is listed as 100%. Also, in the data set on Gallium, the “degree of damage, Gallium” value worked out at 95%. For the same compound, the “degree of damage, Matricaria” value in the data set with Matricaria [6] (60 g of ai./ha) was 95%. In the data set on Stellaria (60 g of ai./ha), the “degree of damage, Stellaria” value is 100%. Besides, in the data set with Maize [7] (in vivo), the “degree … (% damage vs untreated control), Maize” value is listed as 0%. The “degree of damage to the plants (% damage vs untreated control), Soya beans” value with Soya beans was 0%. In addition, in the data set with Lolium [8] (60 g of ai./ha), the “degree … (% damage vs untreated control), Lolium” value was 95%. The “degree of damage to the plants (% damage vs untreated control), Sorghum” value in the data set with Sorghum [9] (60 g of ai./ha) is listed as 95%. Also, the “degree of damage to the plants (% damage vs untreated control), Ambrosia” value in the data set on Ambrosia (60 g of ai./ha) was 95%. In addition, the “degree of damage to the plants (% damage vs untreated control), Matricaria” value in the data set on Matricaria [10] (60 g of ai./ha) was 95%.
